Data: paper PMC10649961, “Novel Mitochondria-Targeted Amphiphilic Aminophosphonium Salts and Lipids Nanoparticles: Synthesis, Antitumor Activity and Toxicity” (Nanomaterials, 2023)

Key:
Assay type in all cases: cell-based, human
HuTu 80 cells = test: Cell apoptosis assay, Annexin V/propidium iodide flow cytometry; settings: HuTu 80, 48-h incubation, IC50/2 and IC50
Experimental: HuTu 80 cells at a rate of 1 × 10^6 cells/well were seeded into six-well plates and incubated until a monolayer formed for approximately 24 h. After […] of incubation, various concentrations of compounds 4b, 5b, 6a, and 8 were added to the wells.
Cells were detached with a trypsin-versene solution (1:3), suspended in PBS, and collected at 2000 rpm for 5 min. Cells were then washed twice with ice-cold PBS, followed by resuspension in binding buffer. Next, the samples were incubated with 5 μL of Annexin V Alexa Fluor 647 (Sigma-Aldrich, St. Louis, MO, USA) and 5 μL of propidium iodide for 15 min at room temperature in the dark. Finally, the cells were analyzed by flow cytometry in the Red-R (661/15 nm)—annexin and Near IR-B (785/70 nm)—PI channels on a Guava easyCyte flow cytometer (Merck Millipore, Burlington, MA, USA) for 1 h. The experiments were repeated three times.

caspase 9 = test: Caspase 9 ELISA in cell lysates; settings: HuTu 80 lysates, IC50/2 and IC50, compared with the control
Experimental: (§1) In vitro quantitative measurement of caspase-9 and caspase-8 was performed using ELISA kits (ELISA Kit for Caspase 9 and ELISA Kit for Caspase 8, Human Cloud-Clone Corp., Wuhan, China). The analysis was carried out according to the manufacturer’s instructions. Samples were standardized for total protein content (1 mg/mL). Protein concentration was determined with Coomassie-based assays using Bredford Dye Reagent (Bio-Rad, Hercules, CA, USA). The absorbance was measured using a microplate reader, EPOCH (BioTek Instruments, Inc., Winooski, VT, USA), at a wavelength of 450 ± 10 nm. Lysates of untreated HuTu 80 cells were used as controls.
(§2) To confirm that apoptosis induced by compounds 4b, 5b, 6a, and 8 proceeds along the internal (mitochondrial) pathway, studies were conducted to determine the enzymatic activity of the early apoptosis key markers—caspase 9 and caspase 8 using ELISA kits. The kits are sandwich enzyme immunoassays for in vitro quantitative measurement of Caspase 8 and Caspase 9 in cell lysates, rat tissue homogenates, and other biological fluids. Caspase 9 plays a key role in the mitochondrial signaling pathway of apoptosis induction. The activation of caspase 8 characterizes the external (receptor-dependent) pathway of apoptosis. HuTu 80 cells not treated with the tested compounds were used as a control.

caspase 8 = test: Caspase 8 ELISA in cell lysates; settings: HuTu 80 lysates, relative to the control
Experimental: as §1, §2

Row | SMILES | apoptosis-inducing effect (in words) (HuTu 80 cells) | concentration of caspase 9 (in words) (caspase 9) | concentration of caspase 8 (in words) (caspase 8)
1 | CCCCCCCC[P+](N(CC)CC)(N(CC)CC)N(CC)CC [4b, Tris(diethylamino)(octyl)phosphonium iodide] | dose-dependent apoptosis | significantly increased | significantly decreased
2 | CCCCCCCC[P+](c1ccccc1)(N(CC)CC)N(CC)CC [5b, Bis(diethylamino)(octyl)(phenyl)phosphonium iodide] | dose-dependent apoptosis | significantly increased | significantly decreased
3 | CCCCCC[P+](c1ccccc1)(c1ccccc1)N(CC)CC [6a, (Diethylamino)(hexyl)diphenylphosphonium iodide] | number of necrotic cells prevailed | significantly increased | –
4 | CCCCCCCC[P+](c1ccccc1)(c1ccccc1)c1ccccc1 [compound 8, Octyltriphenylphosphonium iodide, reference compound] | more active in the early stage of apoptosis | significantly increased | –
